Test results from US4959353A, “Promotion of corneal stroma wound healing with human epidermal growth factor prepared from recombinant DNA” (University of Louisville Foundation, priority 1987, dated 1990).

Key:
interscapular incision [1] = experiment: Tensile strength of incisions treated with a single dose of EGF-saline; assay type: in vivo, rats; conditions: after 10 days; single dose in saline
Procedure: Adult male Sprague Dawley rats weighing 230-250 g were anesthetized and a single interscapular incision 5 cm long penetrating the panniculus carnosus was created in the dorsal midline. Equal amounts of hEGF (10 μg) formulated in one of the four formulations were placed in the base of individual incision tracts, and then sutured. At daily intervals, rats were sacrificed by carbon dioxide inhalation and incisions with 3 mm of surrounding nonwounded skin were excised to the underlying muscle. Total amounts of hEGF present in incision areas were calculated by measuring residual ^125 I-hEGF present in samples using a Beckman 4000 gamma scintillation counter, and were expressed as percentages of original hEGF applied to incisions. At each time point, the average amount of hEGF retained in the incision for each formulation was calculated from the values from three rats. From each incision, three test strips approximately 5 mm wide were cut perpendicular to the original incision, one from the middle and two from each end. Measurements of incision strength were conducted using a Unite-O-Matic FM-20 tensiometer instrument. For each formulation, the mean tensile strength was calculated from the mean value of all incision measurements in the group. […]

interscapular incision [2] = experiment: Tensile strength of incisions treated with repeated doses of EGF-saline; assay type: in vivo, rats
Procedure: Interscapular incisions were created as above on the backs of 22 rats and a perforated catheter was placed in the base of the incision and brought out through a separate stab incision at the base of the neck. Incisions of half the rats were treated three times a day for five days by rapidly injecting 200 μl of PBS containing 50 μg of hEGF, while the control rats received injections of PBS. Seven and 14 days after surgery, rats were sacrificed by carbon dioxide asphixiation, incisions and surrounding tissue were removed as above. Three strips were taken from tensile strength measurement from each incision.
An interscapular incision was made on the back of each rat and a perforated catheter was placed in the base of the incision and brought out through a separate stab wound and the incision was sutured. Incisions were treated three times a day for five days by injecting 200 μl of saline alone or containing 50 μg EGF. After seven and fourteen days, rats were sacrificed and triplicate tensile strength measurements were determined for each rat. Values are mean and standard deviation and n is the number of tensile strength measurements.

[3] = tested on: capillary growth in rabbit cornea; experiment: Rabbit cornea angiogenesis assay with hEGF EVA pellets; assay type: in vivo, rabbits; set-up: key to Angiogenic Response: 4+: profuse capillary growth; 3+: extensive capillary growth; 2+: moderate capillary growth; 1+: very little capillary growth; 0: no capillary growth
Procedure: hEGF was dilated in sterile PBS to concentrations of 500, 100, 20, 4 and 0.8 μg/ml and lyophilized. Ethylene-vinyl acetate (EVA) copolymer beads were mixed with methylene chloride to produce a 10% w/v casting solution. Approximately 0.1 ml of casting solution was added to the lyophilized hEGF and mixed. […]
The pellets were implanted into intrasomal corneal pockets located 1.5 mm from the limbus in the eyes of pigmented adult rabbits. […]

blister wounds = conditions: mEGF in saline solution once daily until healed; human subjects; cited from earlier work
open wounds = conditions: topical application; mice; cited from earlier work

Row | Substance | tensile strength vs PBS-treated or simply sutured incisions (interscapular incision [1]) | average increase in strength over saline treated incisions (interscapular incision [2]; 7 days after surgery) [%] | microscopic appearance of incision tract (interscapular incision [2]; 7 days after surgery) | tensile strength vs saline-treated incisions (interscapular incision [2]; fourteen days after surgery) | Angiogenic Response ([3]; 0.04 mg/pellet (so in the source), EVA pellet) | Angiogenic Response ([3]; 0.18 mg/pellet (so in the source), EVA pellet) | Angiogenic Response ([3]; 1.1 mg/pellet (so in the source), EVA pellet) | Angiogenic Response ([3]; 6.2 mg/pellet (so in the source), EVA pellet) | Angiogenic Response ([3]; 25 mg/pellet (so in the source), EVA pellet in rabbit corneal pocket) | angiogenesis in rabbit cornea assay ([3]; sustained release from EVA pellets) | acceleration in the growth of the epidermal layer (blister wounds) | healing of open wounds (open wounds)
1 | hEGF: human epidermal growth factor polypeptide expressed from plasmid pYαEGF-23 in yeast strain AB103 and purified | not significantly stronger | 35 | very narrow with closely opposed edges | not different | 1+ | 1+ | 2+ | 3+ | 4+ | induced angiogenesis |  | 
2 | mEGF: epidermal growth factor obtained from mouse salivary glands (NSYPGCPSSYDGYCLNGGVCMHIESLDSYTCNCVIGYSGDRCQTRDLRWWELR; not fully specified; Epidermal growth factor; UniProt P01132 977-1029, looked up) |  |  |  |  |  |  |  |  |  |  | No acceleration | promote healing in various degrees
